Calls of active or inactive are those of the source. No cut-off for these calls is given here.
Tests used:
Mus musculus [1] = assay: Antialzheimer activity against amyloid beta (25 to 35)-induced cognitive deficit ICR mouse model assessed as increase in preferential index at 50 mg/kg,po observed after 24 hrs of administration by novel object recognition test; assay type: functional, organism-based
[2] = Clearance in Sprague-Dawley rat at 10 mg/kg,iv measured at 0.083 to 24 hrs post administration by LC-MS/MS analysis; assay type: ADME, organism-based; settings: in vivo, time 0.083-24 hrs
[3] = Permeability of the compound incubated for 4 hrs by PAMPA-BBB assay based HPLC analysis
PC-12 [4] = assay: Neuroprotective activity against rat PC12 cells assessed as reduction in amyloid beta (25 to 35)-induced cytotoxicity at 2.67 to 91.27 uM incubated for 4 hrs followed by amyloid beta (25 to 35) treatment for 24 hrs by MTT assay relative to control; assay type: functional; design: scale not given: the % may be the effect or the level left; settings: dose 2.67-91.27 µM, time 28 hrs
N2a = assay: Cytotoxicity against mouse Neuro2a cells assessed as effect on survival at < 60 uM incubated for 24 hrs by MTT assay; assay type: toxicity, cell-based
Mus musculus [5] = assay: Antialzheimer activity against amyloid beta (25 to 35)-induced spatial memory deficit ICR mouse model assessed as increase in exploration time spent at 50 mg/kg,po observed at 16 to 20 days of administration by morris water maze test; assay type: functional, organism-based; settings: time 16-20 day
[6] = Toxicity in ICR mouse assessed as pathological changes in spleen at 12.5 to 50 mg/kg,po administrated for 20 days by hematoxylin and eosin staining based microscopic analysis; assay type: organism-based; settings: in vivo, 480 h, dose 12.5-50 mg/kg, time 20 day
[7] = Toxicity in ICR mouse assessed as pathological changes in kidney at 12.5 to 50 mg/kg,po administrated for 20 days by hematoxylin and eosin staining based microscopic analysis; assay type: organism-based; settings: in vivo, 480 h, dose 12.5-50 mg/kg, time 20 day
[8] = Toxicity in ICR mouse assessed as pathological changes in liver at 12.5 to 50 mg/kg,po administrated for 20 days by hematoxylin and eosin staining based microscopic analysis; assay type: organism-based; settings: in vivo, 480 h, dose 12.5-50 mg/kg, time 20 day
PC-12 [9] = assay: Neuroprotective activity against amyloid beta (25 to 35)-induced rat PC12 cells assessed as decrease in NF-kappaB phosphorylation level at 7.5 to 30 uM preincubated for 30 mins followed by amyloid beta (25 to 35) addition and measured after 24 hrs by western blot assay; assay type: functional, cell-based; settings: dose 7.5-30 µM, time 24.5 hrs
[10] = Half life in Sprague-Dawley rat at 10 mg/kg,iv measured at 0.083 to 24 hrs post administration by LC-MS/MS analysis; assay type: ADME, organism-based; settings: in vivo, time 0.083-24 hrs
[11] = AUC (0-infinity) in Sprague-Dawley rat at 10 mg/kg,iv measured at 0.083 to 24 hrs post administration by LC-MS/MS analysis; assay type: ADME, organism-based; design: dose 10 mg/kg, time 0.083-24 hrs, route iv; settings: in vivo
PC-12 [12] = assay: Neuroprotective activity against amyloid beta (25 to 35)-induced rat PC12 cells assessed as decrease in tau hyperphosphorylation at Thr181 at 7.5 to 30 uM preincubated for 30 mins followed by amyloid beta (25 to 35) addition and measured after 24 hrs by western blot assay; assay type: functional, cell-based; settings: dose 7.5-30 µM, time 24.5 hrs
Mus musculus [13] = assay: Antialzheimer activity against amyloid beta (25 to 35)-induced spatial memory deficit ICR mouse model assessed as increase in distance travelled in target quadrant at 50 mg/kg,po observed at 16 to 20 days of administration by morris water maze test; assay type: functional, organism-based; settings: time 16-20 day
PC-12 [14] = assay: Neuroprotective activity against amyloid beta (25 to 35)-induced rat PC12 cells assessed as decrease in COX-2 expression level at 7.5 to 30 uM preincubated for 30 mins followed by amyloid beta (25 to 35) addition and measured after 24 hrs by western blot assay; assay type: functional, cell-based; settings: dose 7.5-30 µM, time 24.5 hrs
Mus musculus [15] = assay: Antialzheimer activity against amyloid beta (25 to 35)-induced brain injury ICR mouse model assessed as attenuation of pathological change in cerebral cortex at 12.5 to 50 mg/kg,po administrated for 21 days by hematoxylin and eosin staining based microscopic analysis; assay type: functional, organism-based; settings: dose 12.5-50 mg/kg, time 21.0 day
[16] = Cytotoxicity against mouse Neuro2a cells assessed as cell viability at 120 uM incubated for 24 hrs by MTT assay; assay type: toxicity, cell-based; settings: Neuro2a (N2a) cells, read-out: Activity
Mus musculus [17] = assay: Antialzheimer activity against amyloid beta (25 to 35)-induced cognitive deficit ICR mouse model assessed as attenuation of behavioral deficit at 50 mg/kg,po observed after 12 to 15 days of administration by Y maze test; assay type: functional, organism-based; settings: time 12-15 day
PC-12 [18] = assay: Neuroprotective activity against amyloid beta (25 to 35)-induced rat PC12 cells assessed as decrease in p38 phosphorylation level at 7.5 to 30 uM preincubated for 30 mins followed by amyloid beta (25 to 35) addition and measured after 24 hrs by western blot assay; assay type: functional, cell-based; settings: dose 7.5-30 µM, time 24.5 hrs
[19] = Oral bioavailability in Sprague-Dawley rat at 60 mg/kg measured after 0.25 to 24 hrs post administration by LC-MS/MS analysis; assay type: ADME, organism-based; settings: in vivo, time 0.25-24 hrs
[20] = Toxicity in ICR mouse assessed as pathological changes in heart at 12.5 to 50 mg/kg,po administrated for 20 days by hematoxylin and eosin staining based microscopic analysis; assay type: organism-based; settings: in vivo, 480 h, dose 12.5-50 mg/kg, time 20 day
[21] = AUC (0-infinity) in Sprague-Dawley rat at 60 mg/kg,po measured at 0.25 to 24 hrs post administration by LC-MS/MS analysis; assay type: ADME, organism-based; design: dose 60 mg/kg, time 0.25-24 hrs, route po; settings: in vivo
Mus musculus [22] = assay: Antialzheimer activity against amyloid beta (25 to 35)-induced brain injury ICR mouse model assessed as increase in NeuN expression level in hippocampal CA1 region at 50 mg/kg,po administrated for 21 days by immunohistochemistry analysis; assay type: functional, organism-based; settings: time 21.0 day
PC-12 [23] = assay: Neuroprotective activity against amyloid beta (25 to 35)-induced rat PC12 cells assessed as decrease in JNK expression level at 7.5 to 30 uM preincubated for 30 mins followed by amyloid beta (25 to 35) addition and measured after 24 hrs by western blot assay; assay type: functional, cell-based; settings: dose 7.5-30 µM, time 24.5 hrs
[24] = MRT (0 to t) in Sprague-Dawley rat at 10 mg/kg,iv measured at 0.083 to 24 hrs post administration by LC-MS/MS analysis; assay type: ADME, organism-based; settings: in vivo, time 0.083-24 hrs
PC-12 [25] = assay: Neuroprotective activity against amyloid beta (25 to 35)-induced rat PC12 cells assessed as decrease in IL-1beta expression level at 7.5 to 30 uM preincubated for 30 mins followed by amyloid beta (25 to 35) addition and measured after 24 hrs by western blot assay; assay type: functional, cell-based; settings: dose 7.5-30 µM, time 24.5 hrs
PC-12 [26] = assay: Neuroprotective activity against amyloid beta (25 to 35)-induced rat PC12 cells assessed as decrease in amyloid beta level at 3.75 to 30 uM incubated for 30 mins followed by amyloid beta (25 to 35) addition and measured after 24 hrs by ELISA; assay type: functional, cell-based; settings: dose 3.75-30 µM, time 24.5 hrs
Mus musculus [27] = assay: Antialzheimer activity against amyloid beta (25 to 35)-induced brain injury ICR mouse model assessed as increase in NeuN expression level in hippocampal CA3 region at 50 mg/kg,po administrated for 21 days by immunohistochemistry analysis; assay type: functional, organism-based; settings: time 21.0 day
Mus musculus [28] = assay: Antialzheimer activity against amyloid beta (25 to 35)-induced brain injury ICR mouse model assessed as attenuation of pathological change in hippocampal CAl region at 12.5 to 50 mg/kg,po administrated for 21 days by hematoxylin and eosin staining based microscopic analysis; assay type: functional, organism-based; settings: dose 12.5-50 mg/kg, time 21.0 day
Mus musculus [29] = assay: Antialzheimer activity against amyloid beta (25 to 35)-induced cognitive deficit ICR mouse model assessed as increase in discrimination index at 50 mg/kg,po observed after 1 hr of administration by novel object recognition test; assay type: functional, organism-based

With `CC1(C)CCC[C@](C)([C@H]2CC[C@]3(C)[C@@H]2[C@H](O)C[C@@H]2[C@@]4(C)CC[C@H](OC(=O)NCc5ccccc5)C(C)(C)[C@@H]4CC[C@]23C)O1` the Activity (Mus musculus [1]) was “Active”, the clearance [2] was 0.257 L/h/kg and the Papp at 4 h [3] was 261 nm/s. For the same compound, the Activity (PC-12 [4]) was 14.89%, the Activity (N2a) was “Non-Toxic” and the Activity (Mus musculus [5]) was “Active”. The Activity [6] was “Non-Toxic”, the Activity [7] was “Non-Toxic” and the Activity [8] was “Non-Toxic”. The Activity (PC-12 [9]) was “Active”, the half-life [10] was 2.6 h and the AUC(0-inf) [11] was 40.7 µg·h/mL. For the same compound, the Activity (PC-12 [12]) was “Active”, the Activity (Mus musculus [13]) was “Active” and the Activity (PC-12 [14]) was “Active”. The Activity (Mus musculus [15]) was “Active”, the viability at 24 h, 120 µM [16] was greater than 50% and the Activity (Mus musculus [17]) was “Active”. The Activity (PC-12 [18]) was “Active”, the bioavailability [19] was 0.2% and the Activity [20] was “Non-Toxic”. For the same compound, the AUC(0-inf) [21] was 0.326 µg·h/mL, the Activity (Mus musculus [22]) was “Active” and the Activity (PC-12 [23]) was “Active”. For the same compound, the MRT last [24] was 0.426 h, the Activity (PC-12 [25]) was “Active” and the Activity (PC-12 [26]) was “Active”. The Activity (Mus musculus [27]) was “Active”, the Activity (Mus musculus [28]) was “Active” and the Activity (Mus musculus [29]) was “inactive”.

Reference: ChEMBL document CHEMBL5247626, “In vitro and in vivo biological evaluation of newly synthesized multi-target 20(R)-panaxadiol derivatives for treating Alzheimer's disease” (Eur J Med Chem, 2022)
